Here are results for 3 molecules from patent US6831080B2, “Cinnamide derivatives as KCNQ potassium channel modulators” (Bristol-Myers Squibb Company, priority 2001, dated 2004).

SMILES strings stand for the structures.

The test system of assay [1] is streptozoticin-induced tactile allodynia, Sprague Dawley rats. The assay can be described thus: Diabetic model of neuropathic pain (streptozoticin and von Frey test). In kind it is in vivo, rat. The note with it: 10 mg/kg, i.v.; von Frey thresholds over 90 min; STZ diabetic model. Here is the method:
To test agents for activity against systemic polyneuropathy nerve injury-induced tactile allodynia, animals were treated with streptozoticin (STZ) to create a diabetic condition by selective cytotoxic action upon pancreatic β-islet cells that produce insulin following the method of Courteix, et al. (Courteix C., et al., (1993) Pain, April;53(1):81-8). In brief, male Sprague Dawley rats (wt. 200-275 g) received an injection of STZ (75 mg/kg, i.p.) and diabetes was confirmed three weeks after STZ injection by measurement of tail vein blood glucose levels. After 3-4 weeks, paw withdrawal to light touch was assessed as described by Chaplan et al. (Chaplan S. R., et al., (1994) J Neurosci Methods, July;53(1):55-63). In brief, rats are placed in a plastic cage with a wire mesh bottom and allowed to acclimate for 15-30 minutes, until cage exploration and grooming stops. The plantar surface of each hind paw is touched with a series of von Frey hairs with varying stiffness requiring a known force to buckle to determine the nociceptive threshold. Adult male Sprague Dawley rats (avg. wt. 300 g) were tested in the present study. After acclimation, baseline von Frey thresholds were assessed for the injured hindpaw at -15 min. All test compounds were delivered at 0 min by the intravenous (i.v.) route in a volume of 0.5-2 ml/kg. […] Animals were tested in one of the following 4 treatment conditions: […] Following drug administration, von Frey thresholds are measured at 15, 30, 60 and 90 min. Data were analyzed by a 2-way repeated measures analysis of variance followed by Dunnett's test (p<0.05). Experimenters were kept blind to the treatment condition of rats they tested. […] Specifically, drug effects can be described in terms Δ% MPE according to the following equation: {[…] under the curve for von Frey thresholds of the drug-treated group; AUCvehicle=area under the curve for von Frey thresholds in the vehicle group; Time=duration of post-drug testing period (90 min); and Max=maximum von Frey threshold (15 g).

The target in another assay is T1, mKCNQ2 channels (Mus musculus, UniProt Q9Z351).
T1 construct: expressed in transfected cells
The assay can be described thus: Whole-cell patch-clamp, HEK 293 stable cell line expressing mKCNQ2 channels. In kind it is cell-based. The note with it: HEK 293 mKCNQ2, Hill fit; for EC50: @ −40 mV. As for the experimental part: Whole-cell patch-clamp recordings were made from an HEK 293 stable cell line expressing mKCNQ2 channels, maintained in culture for 1-2 days. Patch pipettes had initial resistances of 2.5-4 MΩ. Currents were recorded with an EPC-9 amplifier (HEKA, Lambrecht, Germany) controlled with software (Pulse, HEKA) run on a standard lab PC. Series resistance compensation was used during current recording, and set at 80%. The series resistance (R) and cell capacitance (C) were determined electronically by subtracting the capacitive currents at the onset and offset of a 5 mV voltage step. The cancellation of whole-cell capacitance transients was virtually complete in all cells. Analog current signals were low-pass filtered at 2.9 kHz using a four-pole Bessel filter −3 dB) and stored on a local network server computer at a sampling rate of […]. All recordings were performed at room temperature (20-22° C.). The pipette solution contained (mM): KCl, 150; CaCl2, 2.5; EGTA, 5; MgCl2, 1; HEPES, 10; pH to 7.3 with KOH, and Osmolality of 290-300 mOsm. The extracellular solution contained (mM): NaCl, 140; KCl, 2.5; CaCl2, 2.5; MgCl2, 1; glucose, 10; HEPES, 10; pH to 7.3 with NaOH, and Osmolality of 305-310 mOsm
Concentration response data were generated by measuring the difference in the steady-state amplitude of current in the presence of compound at the end of a 600 ms voltage-clamp step from a holding potential of −80 mV. The concentration-response data were fitted with Hill-type equations: […]
where I is the steady-state current at a given concentration of agonist [A]; and Imax, EC50 and nH are parameters estimated from the curve fit. In some cases the concentration-response data were fitted with equations consisting of the sum of two Hill-type components. Current-voltage (I/V) relationships for agonist-evoked currents were obtained by performing 600 ms voltage steps (−110 mV to +40 mV) in the absence and presence of agonist.

Assay [2] addresses cloned mouse KCNQ2 (mKCNQ2) (Mus musculus, UniProt Q9Z351). The assay can be described thus: KCNQ oocyte two-electrode voltage clamp, whole-cell outward current. The assay is classed as cell-based. The note with it: 10 μM; single holding potential (−40 μM [sic]); Xenopus oocytes. As for the experimental part: The ability of compounds described in the present invention to open KCNQ channels and increase whole-cell outward (K^+) KCNQ-mediated currents was assessed under voltage-clamp conditions by determining their ability to increase cloned mouse KCNQ2 (mKCNQ2)-mediated, heteromultimeric KCNQ2/3 (mKCNQ2/hKCNQ3)-mediated, and human KCNQ5 (hKCNQ5)-mediated outward currents heterologously expressed in Xenopus oocytes. Oocytes were prepared and injected using standard techniques; each oocyte was injected with approximately 50 nl of mKCNQ2, or hKCNQ5 cRNA. In the case of mKCNQ2/h3 heteromultimeric channel expression, equal amounts (25-50 nL) of each cRNA were co-injected. […] Following injection, oocytes were maintained at 17° in ND96 medium consisting of (in mM): NaCl, 90; KCl, 1.0; CaCl2, 1.0; MgCl2, 1.0; HEPES, 5.0; pH 7.5. Horse serum (5%) and penicillin/streptomycin (5%) were added to the incubation medium. Recording commenced 2-6 days following mRNA injection. Prior to the start of an experiment oocytes were placed in a recording chamber and incubated in Modified Barth's Solution (MBS) consisting of (in mM): NaCl, 88; NaHCO3, 2.4; KCl, 1.0; HEPES, 10; MgSO4, 0.82; Ca(NO3)2, 0.33; CaCl2, 0.41; pH 7.5.
Oocytes were impaled with electrodes (1-2 MΩ) and standard 2-electrode voltage clamp techniques were employed to record whole-cell membrane currents. Recordings were accomplished using standard two-electrode voltage clamp techniques [Stuhmer, W., et al., Methods in Enzymology, Vol. 207: 319-339 (1992)]. Voltage-clamp protocols typically consisted of a series of voltage steps 1-5 sec duration, in +10 mV steps from a holding potential of −90 mV to a maximal potential of +40 mV; records were digitized at 5 kHz and stored on a computer using pClamp data acquisition and analysis software (Axon Instruments). Compounds were evaluated at a single concentration and at a single holding potential (−40 μM); the effect of the selected compounds of Formula I on KCNQ2 current was expressed as the percent of control current and is listed in Table I.

T1 sequence (Q9Z351 whole entry): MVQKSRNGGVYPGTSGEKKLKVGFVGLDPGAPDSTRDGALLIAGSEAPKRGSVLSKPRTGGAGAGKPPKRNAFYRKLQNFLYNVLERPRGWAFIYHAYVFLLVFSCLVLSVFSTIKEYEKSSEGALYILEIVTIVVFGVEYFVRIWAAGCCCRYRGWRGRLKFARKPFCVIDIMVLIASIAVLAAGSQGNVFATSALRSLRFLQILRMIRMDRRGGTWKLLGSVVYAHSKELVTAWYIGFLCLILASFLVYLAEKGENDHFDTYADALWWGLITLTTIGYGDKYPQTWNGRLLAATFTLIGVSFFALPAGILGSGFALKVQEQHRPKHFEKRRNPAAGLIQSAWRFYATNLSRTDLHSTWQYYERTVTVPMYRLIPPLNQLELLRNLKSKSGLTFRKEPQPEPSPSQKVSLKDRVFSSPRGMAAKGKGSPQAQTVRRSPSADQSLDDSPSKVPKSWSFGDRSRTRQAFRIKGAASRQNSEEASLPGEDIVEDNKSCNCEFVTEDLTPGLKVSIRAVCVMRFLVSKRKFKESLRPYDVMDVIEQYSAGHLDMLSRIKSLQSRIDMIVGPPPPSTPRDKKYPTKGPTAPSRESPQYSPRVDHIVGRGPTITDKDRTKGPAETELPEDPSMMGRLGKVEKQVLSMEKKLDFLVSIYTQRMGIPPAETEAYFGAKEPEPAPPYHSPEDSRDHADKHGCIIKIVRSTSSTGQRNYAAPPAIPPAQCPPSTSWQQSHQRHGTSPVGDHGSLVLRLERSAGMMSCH
cloned mouse KCNQ2 (mKCNQ2), sequence (Q9Z351 whole entry): as above

For `C[C@H](NC(=O)/C=C/c1ccc(F)cc1)c1ccc(F)c(N2CCOCC2)c1` [Example 169, (S)-N-[1-(4-Fluoro-3-morpholin-4-yl-phenyl)-ethyl]-3-(4-fluoro-phenyl)-acrylamide], the “AUC (Δ% MPE)” value in assay [1] is given as 12 (10 mg/kg, i.v.) Δ% MPE. In addition, the 50% effective concentration (EC50) on mKCNQ2 channels is 1 µM.
In the case of `C[C@H](NC(=O)/C=C/c1ccccc1)c1cccc(N2CCOCC2)c1` [Example 82, (S)-3-Phenyl-N-[1-(3-morpholin-4-yl-phenyl)ethyl]acrylamide], the “AUC (Δ% MPE)” value in assay [1] is listed as 23 (10 mg/kg, i.v.) Δ% MPE. Further, in assay [2], the activity at 10 µM was 197%.
In turn, `C[C@H](NC(=O)/C=C/c1ccc(F)cc1)c1ccc2ccccc2c1` [Example 1, (S)-3-(4-Fluoro-phenyl)-N-(1-naphthalen-2-yl-ethyl)acrylamide] showed a 50% effective concentration (EC50) on mKCNQ2 channels of 9.2 µM. Besides, the Emax at mKCNQ2 channels (HEK293, read-out: Imax (%)) was found to be 237%.
